This note sets out measurements from article PMC7503981, “Plant Nitrilase Homologues in Fungi: Phylogenetic and Functional Analysis with Focus on Nitrilases in Trametes versicolor and Agaricus bisporus” (Molecules, 2020).

One test relates to T1, NitAb.
T1 construct: catalytic tetrad E45, K157, E164, C195
As to the kind of experiment: spectrophotometric ammonia assay; […] substrate. Particulars: NLase (Asp + ammonia forming) activity; no asparaginase added for NLase activity; 50 mM Tris/HCl, 150 mM NaCl, pH 8.0, 30 °C; read-out: Substrate β-CA / Vmax [U mg^-1 rotein)] KM (mM) / NLase Activity ^2. Format: biochemical, Agaricus bisporus.

The target of a further test is T2, NitTv1 (Trametes versicolor, UniProt P9WEU6).
T2 construct: gene nit; catalytic tetrad E46, K133, E140, C178
As to the kind of experiment: spectrophotometric ammonia assay; […] substrate. Type of test: biochemical. Particulars: read-out: Substrate β-CA / Vmax [U mg^-1 rotein)] KM (mM) / NLase Activity ^2; NLase (Asp + ammonia forming) activity; no asparaginase added for NLase activity; 50 mM Tris/HCl, 150 mM NaCl, pH 8.0, 30 °C.

T2 sequence (P9WEU6 whole entry): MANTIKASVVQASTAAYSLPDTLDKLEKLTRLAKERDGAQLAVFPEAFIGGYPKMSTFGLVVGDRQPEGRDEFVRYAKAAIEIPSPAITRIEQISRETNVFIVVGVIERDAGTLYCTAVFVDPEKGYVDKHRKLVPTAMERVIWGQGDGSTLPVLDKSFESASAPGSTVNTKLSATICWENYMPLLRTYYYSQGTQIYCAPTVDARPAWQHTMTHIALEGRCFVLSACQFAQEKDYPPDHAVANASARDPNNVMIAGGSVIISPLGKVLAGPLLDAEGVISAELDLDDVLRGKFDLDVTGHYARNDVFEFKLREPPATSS

For `N#CC[C@H](N)C(=O)O` [β-CA, β-cyano-L-alanine], the Km in the test on NitAb worked out at 7.38 ± 1.4 mM; at NitTv1, 7.72 ± 1.82 mM.
